Holding throughout (assay): cryo-EM structure of intact phycobilisome, […] Å
What all share (type): binding

Experiment [1] concerns the target T1, ApcE (LCM), Synechococcus 7002 (Picosynechococcus sp. PCC 7002, UniProt O68973).
T1 construct: native, within intact phycobilisome; N-terminal alpha-LCM domain holds the bilin; three REP domains
T1 sequence (O68973 1-886): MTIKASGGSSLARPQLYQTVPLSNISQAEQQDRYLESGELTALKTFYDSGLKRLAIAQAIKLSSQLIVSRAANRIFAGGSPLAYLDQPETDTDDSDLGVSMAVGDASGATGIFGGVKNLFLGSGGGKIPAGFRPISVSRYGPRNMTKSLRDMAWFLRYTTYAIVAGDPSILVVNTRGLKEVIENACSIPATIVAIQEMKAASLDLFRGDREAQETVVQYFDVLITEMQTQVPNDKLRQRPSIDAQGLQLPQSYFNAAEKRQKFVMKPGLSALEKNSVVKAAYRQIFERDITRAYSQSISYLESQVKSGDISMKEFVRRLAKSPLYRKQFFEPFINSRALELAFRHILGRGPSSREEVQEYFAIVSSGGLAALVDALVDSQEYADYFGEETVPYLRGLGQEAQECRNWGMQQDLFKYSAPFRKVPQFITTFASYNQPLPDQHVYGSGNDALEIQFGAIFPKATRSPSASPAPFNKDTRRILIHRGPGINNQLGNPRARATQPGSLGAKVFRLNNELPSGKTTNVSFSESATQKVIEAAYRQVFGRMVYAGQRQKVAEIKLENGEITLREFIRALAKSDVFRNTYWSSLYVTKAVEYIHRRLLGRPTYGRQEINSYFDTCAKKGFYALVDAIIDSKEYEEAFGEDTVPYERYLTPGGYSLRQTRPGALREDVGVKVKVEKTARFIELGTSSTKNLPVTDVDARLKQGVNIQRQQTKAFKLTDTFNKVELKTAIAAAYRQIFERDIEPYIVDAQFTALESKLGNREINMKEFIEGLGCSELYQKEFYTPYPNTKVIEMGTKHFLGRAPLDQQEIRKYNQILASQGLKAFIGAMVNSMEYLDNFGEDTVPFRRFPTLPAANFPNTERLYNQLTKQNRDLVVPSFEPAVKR
Particulars: covalent; native chromophore; in alpha-LCM domain.

The target of experiment [2] is T2, ApcF (Synechococcus 7002) (Picosynechococcus sp. PCC 7002, UniProt O68967).
T2 construct: native, within intact phycobilisome purified from cells; mildly glutaraldehyde cross-linked; trimer A3
The conditions noted are these: covalent; native chromophore.

The target in experiment [3] is T3, ApcA (Synechococcus 7002) (Picosynechococcus sp. PCC 7002, UniProt B1XQM2).
T3 construct: native, within intact phycobilisome purified from cells; mildly glutaraldehyde cross-linked
T3 sequence (B1XQM2 2-161): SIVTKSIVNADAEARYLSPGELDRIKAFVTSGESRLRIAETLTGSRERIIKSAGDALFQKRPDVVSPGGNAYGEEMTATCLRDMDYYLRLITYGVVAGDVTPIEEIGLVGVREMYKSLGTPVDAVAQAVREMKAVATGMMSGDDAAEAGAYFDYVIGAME
Particulars: covalent; native chromophore.

Experiment [4] has as its target T4, ApcD (Synechococcus 7002) (Picosynechococcus sp. PCC 7002, UniProt O68966).
T4 construct: native, within intact phycobilisome purified from cells; mildly glutaraldehyde cross-linked; paired with ApcB in trimer A4
The conditions noted are these: covalent; native chromophore.

Experiment [5] has as its target T5, ApcB (Synechococcus 7002) (Picosynechococcus sp. PCC 7002, UniProt O68970).
T5 construct: native, within intact phycobilisome purified from cells; mildly glutaraldehyde cross-linked
T5 sequence (O68970 1-161): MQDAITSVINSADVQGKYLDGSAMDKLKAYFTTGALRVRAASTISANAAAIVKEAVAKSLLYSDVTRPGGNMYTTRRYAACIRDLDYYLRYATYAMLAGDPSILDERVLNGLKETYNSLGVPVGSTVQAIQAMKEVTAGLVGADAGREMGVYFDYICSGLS
Particulars: covalent; native chromophore.

The results in this text go back to PMC8448738, “Structural insight into the mechanism of energy transfer in cyanobacterial phycobilisomes” (Nature Communications, 2021).

On to `CC=C1C(=Cc2[nH]c(C=C3N=C(C=C4NC(=O)C(CC)=C4C)C(C)=C3CCC(=O)O)c(CCC(=O)O)c2C)NC(=O)C1C` (centres unmarked) [phycocyanobilin], for which the “cryo-EM structure of intact phycobilisome, 3.5 Å” value in experiment [1] was “The bilins of ApcF (orange), ApcE (red), and ApcA (forest green) are shown”; in experiment [2] it was “The bilins of ApcF (orange), ApcE (red), and ApcA (forest green) are shown”; in experiment [3], “The bilins of ApcF (orange), ApcE (red), and ApcA (forest green) are shown”; in experiment [4], “Only the bilin of ApcD is shown with its ring-A through ring-D indicated”; in experiment [5] it was “Y116 is located between αApcD and the bilin of ApcB^A4-II”.
